Measured values taken from ChEMBL document CHEMBL5620362 (Eur J Med Chem, 2023).
Active and inactive are the calls of the source. The rule behind the calls is not given here.

Assays:
[1] = target: T1, Nuclear receptor ROR-gamma (Homo sapiens, UniProt P51449); assay: Binding affinity to CM5 chip-immobilized recombinant ROR-gamma LBD (unknown origin) assessed as dissociation constant by SPR analysis
T1 sequence (P51449 whole entry): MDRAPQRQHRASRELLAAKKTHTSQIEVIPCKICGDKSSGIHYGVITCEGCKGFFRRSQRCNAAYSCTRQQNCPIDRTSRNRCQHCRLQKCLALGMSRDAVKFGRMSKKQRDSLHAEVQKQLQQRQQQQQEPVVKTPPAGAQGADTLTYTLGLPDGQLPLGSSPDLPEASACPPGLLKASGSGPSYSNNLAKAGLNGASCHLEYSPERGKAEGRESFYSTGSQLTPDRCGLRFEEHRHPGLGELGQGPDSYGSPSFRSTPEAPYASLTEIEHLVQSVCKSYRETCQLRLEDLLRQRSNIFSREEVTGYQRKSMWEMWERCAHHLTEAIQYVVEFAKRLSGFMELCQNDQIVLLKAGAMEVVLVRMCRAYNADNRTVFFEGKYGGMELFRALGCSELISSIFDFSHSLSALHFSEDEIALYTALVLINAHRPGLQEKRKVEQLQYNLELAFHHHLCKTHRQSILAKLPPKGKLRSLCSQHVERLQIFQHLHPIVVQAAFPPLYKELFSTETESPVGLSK

HPAF-II [2] = assay: Antitumor activity against human HPAF-II cells measured after 72 hrs; format: functional, cell-based
[3] = target: T2, Nuclear receptor ROR-gamma (Homo sapiens) (UniProt P51449); assay: Antagonist activity at Gal4-tagged ROR-gamma LBD (unknown origin) transfected in HEK293T cells assessed as reduction in luciferase activity at 0.1 to 1 uM incubated for 24 hrs by Renilla luciferase reporter gene assay; format: cell-based; conditions: filed as antagonist, dose 0.1-1 µM
T2 sequence (whole entry): T1 sequence (P51449 whole entry)

HPAF-II [4] = assay: Induction of apoptosis in human HPAF-II cells assessed as necrotic cells at 1 uM incubated for 48 hrs by Annexin V-FITC/PI staining based flow cytometry (reference value: 8.09 %); format: functional
HPAF-II [5] = assay: Induction of apoptosis in human HPAF-II cells assessed as necrotic cells at 0.1 uM incubated for 48 hrs by Annexin V-FITC/PI staining based flow cytometry (reference value: 8.09 %); format: functional
HPAF-II [6] = assay: Induction of apoptosis in human HPAF-II cells assessed as viable cells at 0.01 uM incubated for 48 hrs by Annexin V-FITC/PI staining based flow cytometry (reference value: 89.73 %); format: functional; conditions: read-out: Activity
HPAF-II [7] = assay: Induction of apoptosis in human HPAF-II cells assessed as early apoptotic cells at 0.01 uM incubated for 48 hrs by Annexin V-FITC/PI staining based flow cytometry (reference value: 0.90 %); format: functional
NCI-H23 [8] = assay: Induction of apoptosis in human NCI-H23 cells assessed as necrotic cells at 10 uM incubated for 48 hrs by Annexin V-FITC/PI staining based flow cytometry (reference value: 0.78 %); format: functional
NCI-H23 [9] = assay: Induction of apoptosis in human NCI-H23 cells assessed as early apoptotic cells at 0.1 uM incubated for 48 hrs by Annexin V-FITC/PI staining based flow cytometry (reference value: 4.17 %); format: functional
NCI-H23 [10] = assay: Induction of apoptosis in human NCI-H23 cells assessed as early apoptotic cells at 0.01 uM incubated for 48 hrs by Annexin V-FITC/PI staining based flow cytometry (reference value: 4.17 %); format: functional
NCI-H23 [11] = assay: Induction of apoptosis in human NCI-H23 cells assessed as late apoptotic cells at 0.01 uM incubated for 48 hrs by Annexin V-FITC/PI staining based flow cytometry (reference value: 2.89 %); format: functional
NCI-H23 [12] = assay: Induction of apoptosis in human NCI-H23 cells assessed as necrotic cells at 0.01 uM incubated for 48 hrs by Annexin V-FITC/PI staining based flow cytometry (reference value: 0.78 %); format: functional
NCI-H358 [13] = assay: Anticancer activity against human NCI-H358 cells incubated for 72 hrs; format: functional, cell-based
NCI-H23 [14] = assay: Anticancer activity against human NCI-H23 cells incubated for 72 hrs; format: functional, cell-based
SW1573 = assay: Anticancer activity against human SW1573 cells incubated for 72 hrs; format: functional, cell-based
BXPC-3 = assay: Anticancer activity against human BXPC-3 cells incubated for 72 hrs; format: functional, cell-based
MIA PaCa-2 [15] = assay: Anticancer activity against human MIA PaCa-2 cells incubated for 72 hrs; format: functional, cell-based
CFPAC-1 = assay: Anticancer activity against human CFPAC-1 cells incubated for 72 hrs; format: functional, cell-based
HEK-293T = assay: Cytotoxicity against HEK293T cells incubated for 72 hrs; format: toxicity, cell-based; conditions: human
NCI-H358 [16] = assay: Induction of apoptosis in human NCI-H358 cells 1 uM incubated for 48 hrs by Annexin V-FITC/PI staining based flow cytometry; format: functional, cell-based
HPAF-II [17] = assay: Induction of apoptosis in human HPAF-II cells assessed as reduction in MCL-1 level at 0.1 to 1 uM incubated for 48 hrs by Western blot analysis; format: functional, cell-based; conditions: dose 0.1-1 µM
HPAF-II [18] = assay: Induction of apoptosis in human HPAF-II cells assessed as increase in cleaved caspase-3 level at 0.1 to 1 uM incubated for 48 hrs by Western blot analysis; format: functional, cell-based; conditions: dose 0.1-1 µM
HPAF-II [19] = assay: Downregulation of phosphorylated MEK expression in human HPAF-II cells at 0.1 to 1 uM incubated for 48 hrs by Western blot analysis; format: functional, cell-based; conditions: dose 0.1-1 µM
MIA PaCa-2 [20] = assay: Cytotoxicity against human MIA PaCa-2 cells harboring siROR-gamma assessed as decrease in cell viability at 0.1 uM incubated for 72 hrs by SRB assay; format: functional, cell-based
MIA PaCa-2 [21] = assay: Inhibition of colony formation in human MIA PaCa-2 cells harboring siROR-gamma 0.1 uM incubated for 6 to 7 days by crystal violet staining based analysis; format: functional, cell-based; conditions: time 6-7 day
HPAF-II [22] = assay: Downregulation of AKT phosphorylation level in human HPAF-II cells harboring siROR-gamma at 0.1 uM by Western blot analysis; format: functional, cell-based
HPAF-II [23] = assay: Downregulation of MEK phosphorylation level in human HPAF-II cells harboring siROR-gamma at 0.1 uM by Western blot analysis; format: functional, cell-based
[24] = Volume of distribution at steady state in ICR mouse at 3 mg/kg, iv; format: ADME, organism-based; conditions: in vivo, read-out: Vdss
[25] = Clearance in ICR mouse at 3 mg/kg, iv; format: ADME, organism-based; conditions: in vivo
[26] = Half life in ICR mouse at 10 mg/kg, po; format: ADME, organism-based; conditions: in vivo
[27] = AUClast in ICR mouse at 10 mg/kg, po; format: ADME, organism-based; conditions: in vivo
[28] = MRT (infinity) in ICR mouse at 10 mg/kg, po; format: ADME, organism-based; conditions: in vivo
[29] = Oral bioavailability in ICR mouse at 10 mg/kg; format: ADME, organism-based; conditions: in vivo
HPAF-II [30] = assay: Antitumor activity against human HPAF-II cells xenografted in nude Balb/cA mouse assessed as tumor growth inhibition at 15 mg/kg, ip qd measured for 12 days relative to control; format: functional; parameters: scale not given: the % may be the effect or the level left; conditions: time 12 day
[31] = Toxicity in nude Balb/cA mouse xenografted with human HPAF-II cells assessed as body weight loss at 90 to 180 mg/kg, po qd measured for 12 days; format: organism-based; conditions: in vivo, 288 h, dose 90-180 mg/kg, time 12 day

Kd [1]: 180 nM
IC50 (HPAF-II [2]): 90 nM
Activity [3]: Active
Vd [24]: 5.21 L/kg
clearance [25]: 16.5 mL/min/kg
half-life [26]: 11.9 h
AUC(0-t) [27]: 1670 ng·h/mL
MRT inf [28]: 16.6 h
bioavailability [29]: 16.8%
Compound: C=C(C)[C@@H]1CC[C@]2(C(=O)NCCCN(C)C)CC[C@]3(C)[C@H](CC[C@@H]4[C@@]5(C)CC[C@H](O)C(C)(C)[C@@H]5CC[C@]43C)[C@@H]12
Activity (HPAF-II [4]): 2.06%
Activity (HPAF-II [5]): 4.85%
viability at 0.01 µM (HPAF-II [6]): 82.6%
Activity (HPAF-II [7]): 5.34%
Activity (NCI-H23 [8]): 0.61%
Activity (NCI-H23 [9]): 3.45%
Activity (NCI-H23 [10]): 4.06%
Activity (NCI-H23 [11]): 6.78%
Activity (NCI-H23 [12]): 2.81%
Activity (NCI-H358 [13]): Active
Activity (NCI-H23 [14]): Active
Activity (SW1573): Active
Activity (BXPC-3): Active
Activity (MIA PaCa-2 [15]): Active
Activity (CFPAC-1): Active
Activity (HEK-293T): Non-Toxic
Activity (NCI-H358 [16]): Active
Activity (HPAF-II [17]): Active
Activity (HPAF-II [18]): Active
Activity (HPAF-II [19]): Active
Activity (MIA PaCa-2 [20]): inactive
inhibition (MIA PaCa-2 [21]): inactive
Activity (HPAF-II [22]): Active
Activity (HPAF-II [23]): Active
Activity (HPAF-II [30]): 76%
Activity [31]: Non-Toxic
